Values after ≈ are worked out from the molar mass of the structure shown. Counter-ions that a name gives are not always drawn. Like-named read-outs stand apart in the source and are kept apart here.
Key:
physchem = type: physicochemical; conditions: for Solubility in water: 30 min
Experimental: About 10 mg of the test product is taken and put in a 1.5 mL sample tube, to which 1 mL of deionized water is added, and then the sample tube is placed in a constant temperature mixer and shaken at 37° C. for 30 minutes; after shaking, the sample tube is placed in a centrifuge to undergo centrifugation for 2 minutes. Then, 500 μL of the supernatant is taken and diluted with acetonitrile to an appropriate concentration, which is used as a test sample solution for HPLC analysis.
An appropriate amount of sample was weighed and put in a glass test tube, to which a selected solvent was gradually added. The clarification process was observed.

SARS-CoV-2 = conditions: according to experimental tests; compounds of CN 202010313870.X; cited from earlier work
[1] = system: a variety of other RNA viruses; conditions: according to experimental tests; compounds of CN 202010313870.X; cited from earlier work
Hygroscopicity test = type: physicochemical; conditions: 25° C., RH80%, 24 hours
Experimental: An appropriate amount of a test product is taken and spread in a glass-stoppered weighing bottle that has been placed in an artificial climate box (temperature is 25° C.±1° C., relative humidity is 80%±2%) for 24 hours. The weighing bottle is opened, put together with the stopper in the artificial climate box (the temperature is 25° C.±1° C., the relative humidity is 80%±2%) for 24 hours, and then taken out. The moisture content of the test product before and after being placed in the artificial climate box is measured, and the hygroscopicity is measured by comparing the change in moisture content.

[2] = type: physicochemical
Experimental: The test product is placed in suitable clean containers, and then placed under conditions of high temperature (80° C.), high humidity (25° C., relative humidity 92.5%), and light (light intensity 4500±500 1× and 90 μw/cm^2), respectively, for 7 days, and samples are taken on the 7th day and tested according to the stability inspection items.

Structure (SMILES): CC(C)C(=O)OC[C@H]1O[C@@](C#N)(c2ccc3c(N)ncnn23)[C@H](OC(=O)C(C)C)[C@@H]1OC(=O)C(C)C [Compound W, (2R,3R,4R,5R)-2-(4-aminopyrrolo[2,1-f][1,2,4]triazin-7-yl)-2-cyano-5-(isobutyryloxymethyl)tetrahydrofuran-3,4-diyl bis(2-methylpropanoate)]
- water solubility (physchem): poor water solubility
- anti-SARS-CoV-2 activity (SARS-CoV-2): significant
- inhibitory effect on a variety of other RNA viruses [1]: good inhibitory effect

Structure (SMILES): [2H]c1cc([C@]2(C#N)O[C@H](COC(=O)C(C)C)[C@@H](OC(=O)C(C)C)[C@H]2OC(=O)C(C)C)n2ncnc(N)c12 [Compound Z, (2R,3R,4R,5R)-2-(4-aminopyrrolo[2,1-f][1,2,4]triazin-7-yl-5-d)-2-cyano-5-(isobutyryloxymethyl)tetrahydrofuran-3,4-diyl bis(2-methylpropanoate)]
- water solubility (physchem): poor water solubility
- Solubility in water (physchem): 29 µg/mL (≈ 57.7 µM)
- anti-SARS-CoV-2 activity (SARS-CoV-2): significant
- inhibitory effect on a variety of other RNA viruses [1]: good inhibitory effect

Structure (SMILES): Br.CC(C)C(=O)OC[C@H]1O[C@@](C#N)(c2ccc3c(N)ncnn23)[C@H](OC(=O)C(C)C)[C@@H]1OC(=O)C(C)C [Hydrobromide of Compound W, (2R,3R,4R,5R)-2-(4-aminopyrrolo[2,1-f][1,2,4]triazin-7-yl)-2-cyano-5-(isobutyryloxymethyl)tetrahydrofuran-3,4-diyl bis(2-methylpropanoate) hydrobromide]
- Hygroscopicity (Hygroscopicity test): no hygroscopicity
- increase in moisture content (Hygroscopicity test): RH80%, with an increase in moisture content of <0.1%,
- Stability ([2]; 7 days): Good stability under high temperature (80° C.), high

Structure (SMILES): Cl.[2H]c1cc([C@]2(C#N)O[C@H](COC(=O)C(C)C)[C@@H](OC(=O)C(C)C)[C@H]2OC(=O)C(C)C)n2ncnc(N)c12 [Hydrochloride of Compound Z, (2R,3R,4R,5R)-2-(4-aminopyrrolo[2,1-f][1,2,4]triazin-7-yl-5-d)-2-cyano-5-(isobutyryloxymethyl)tetrahydrofuran-3,4-diyl bis(2-methylpropanoate) hydrochloride]
- increase in moisture content (Hygroscopicity test): moisture content of <0.1%
- Hygroscopicity (Hygroscopicity test; listed as hydrochloride of Compound Z, hydrochloride): no hygroscopicity

Structure (SMILES): O=C(O)/C=C\C(=O)O.[2H]c1cc([C@]2(C#N)O[C@H](COC(=O)C(C)C)[C@@H](OC(=O)C(C)C)[C@H]2OC(=O)C(C)C)n2ncnc(N)c12 [Maleate of Compound Z, (2R,3R,4R,5R)-2-(4-aminopyrrolo[2,1-f][1,2,4]triazin-7-yl-5-d)-2-cyano-5-(isobutyryloxymethyl)tetrahydrofuran-3,4-diyl bis(2-methylpropanoate) maleate]
- solubility at 30 min (physchem; 37 °C, water, thermodynamic from solid, Solubility in water): 351 µg/mL
- increase in moisture content (Hygroscopicity test): moisture content of <0.1%
- Hygroscopicity (Hygroscopicity test; listed as maleate of Compound Z, maleate): no hygroscopicity

Structure (SMILES): [2H]c1cc([C@]2(C#N)O[C@H](COC(=O)C(C)C)[C@@H](OC(=O)C(C)C)[C@H]2OC(=O)C(C)C)n2ncnc(N)c12 [Mesylate of Compound Z, (2R,3R,4R,5R)-2-(4-aminopyrrolo[2,1-f][1,2,4]triazin-7-yl-5-d)-2-cyano-5-(isobutyryloxymethyl)tetrahydrofuran-3,4-diyl bis(2-methylpropanoate) mesylate]
- Solubility in water (physchem): 464 µg/mL
- increase in moisture content (Hygroscopicity test): moisture content of <0.2%
- Hygroscopicity (Hygroscopicity test; listed as mesylate of Compound Z, mesylate): no hygroscopicity
- Stability [2]: decomposed obviously and had a peculiar smell.

Structure (SMILES): [2H]c1cc([C@]2(C#N)O[C@H](COC(=O)C(C)C)[C@@H](OC(=O)C(C)C)[C@H]2OC(=O)C(C)C)n2ncnc(N)c12 [Nitrate of Compound Z, (2R,3R,4R,5R)-2-(4-aminopyrrolo[2,1-f][1,2,4]triazin-7-yl-5-d)-2-cyano-5-(isobutyryloxymethyl)tetrahydrofuran-3,4-diyl bis(2-methylpropanoate) nitrate]
- Hygroscopicity (Hygroscopicity test; listed as nitrate of Compound Z, nitrate): no hygroscopicity
- increase in moisture content (Hygroscopicity test; nitrate): moisture content of <0.1%
- Stability ([2]; 7 days): (80° C.), the solid melted, decomposed,

Reference: patent US20230312584A1, “SALT OF NUCLEOSIDE ANALOG, AND CRYSTAL FORM, PHARMACEUTICAL COMPOSITION AND USE THEREOF” (priority 2020, published 2023)
